Patent US10577363B2, “Substituted piperidine compounds” (EPIZYME, INC., priority 2014, dated 2020)

These compounds were tested against SMYD3 (Homo sapiens (Human), UniProt Q9H7B4) (assay: SMYD3 biochemical assay (SPA, 3H-SAM methylation of MEKK2 protein substrate)). Details: read-out: SMYD3 Biochem IC50 (μM)*.
Description: S-adenosylmethionine (SAM), S-adenosylhomocysteine (SAH), Tris, Tween20, dimethylsulfoxide (DMSO), bovine skin gelatin (BSG), and Tris(2-carboxyethyl)phosphine hydrochloride solution (TCEP) were purchased from Sigma-Aldrich at the highest level of purity possible. ^3H-SAM was purchase from American Radiolabeled Chemicals with a specific activity of 80 Ci/mmol. 384-well opaque white OptiPlates and SPA beads (Perkin Elmer, catalog # RPNQ0013) were purchased from PerkinElmer.
N-terminally GST-tagged MEKK2 (MAP3K2) protein corresponding to reference sequence AAF63496.3 was purchased from Life Technologies (catalog # PV4010). This protein was expressed in High Five insect cells and purified to >85% purity. Protein identity was confirmed by MS/MS analysis after proteolytic digestion. The protein sequence used was:
Full-length human SMYD3 isoform 1 (BAB86333) was inserted into a modified pET21b plasmid containing a His6 tag and TEV and SUMO cleavage sites.
E. coli (BL21 codonplus RIL strain, Stratagene) were transformed with plasmid pEPZ553 by mixing competent cells and plasmid DNA and incubating on ice for 30 minutes followed by heat shock at 42° C. for 1 minute and cooling on ice for 2 minutes. Transformed cells were grown and selected on LB agar with 100 μg/mL ampicillin and 17 μg/mL chloramphenicol at 37° C. overnight. A single clone was used to inoculate 200 mL of LB medium with 100 μg/mL ampicillin and 17 μg/mL chloramphenicol and incubated at 37° C. on an orbital shaker at 180 rpm. Once in log growth, the culture was diluted 1:100 into 2 L of LB medium and grown until OD600 was about 0.3 after which the culture was incubated at 15° C. and 160 rpm. Once OD600 reached about 0.4, IPTG was added to a final concentration of 0.1 mM and the cells were grown overnight at 15° C. and 160 rpm. Cells were harvested by centrifugation at 8000 rpm, for 4 minutes at 4° C. and stored at −80° C. for purification.
The column was washed with Buffer B (Buffer A plus 20 mM imidazole) and His-tagged SMYD3 was eluted with Buffer C (Buffer A plus 300 mM imidazole). The His tag, TEV and SUMO cleavage sites were removed generating native SMYD3 by addition of ULP1 protein at a ratio of 1:200 (ULP1:SMYD3). Imidazole was removed by dialysis overnight in Buffer A. The dialyzed solution was applied to a second Nickel column and the native SMYD3 protein was collected from the column flow-through. The flow-through was dialyzed in Buffer D (25 mM Tris, 5% glycerol, 5 mM β-mercaptoethanol, 50 mM NaCl, pH7.8) and ULP1 was removed using a Q sepharose fast flow column.
General Procedure for SMYD3 Enzyme Assays on MEKK2 Protein Substrate
The assays were all performed in a buffer consisting of 25 mM Tris-Cl pH 8.0, 1 mM TCEP, 0.005% BSG, and 0.005% Tween 20, prepared on the day of use. […] DMSO (1 ul) was added to Columns 11, 12, 23, 24, rows A-H for the maximum signal control and 1 ul of SAH, a known product and inhibitor of SMYD3, was added to columns 11, 12, 23, 24, rows I-P for the minimum signal control. A cocktail (40 ul) containing the SMYD3 enzyme was added by Multidrop Combi (Thermo-Fisher). The compounds were allowed to incubate with SMYD3 for 30 min at room temperature, then a cocktail (10 ul) containing SAM and MEKK2 was added to initiate the reaction (final volume=51 ul). […] The assays were stopped by the addition of non-radiolabeled SAM (10 ul) to a final concentration of 100 uM, which dilutes the ^3H-SAM to a level where its incorporation into MEKK2 is no longer detectable. Radiolabeled MEKK2 was detected using a scintillation proximity assay (SPA). 10 uL of a 10 mg/mL solution of SPA beads in 0.5 M citric acid was added and the plates centrifuged at 600 rpm for 1 min to precipitate the radiolabeled MEKK2 onto the SPA beads. The plates were then read in a PerkinElmer TopCount plate reader to measure the quantity of ^3H-labeled MEKK2 as disintegrations per minute (dpm) or alternatively, referred to as counts per minute (cpm).

| IC50 [µM] | Structure (SMILES) |
| --- | --- |
| 2.88 | N[C@@H](Cc1ccccc1)C(=O)N1CCC(NC(=O)c2cc(C3CC3)on2)CC1 [compound 1, N-(1-(L-phenylalanyl)piperidin-4-yl)-5-cyclopropylisoxazole-3-carboxamide] |
| 15.5 | N[C@H](Cc1c[nH]c2ccccc12)C(=O)N1CCC(NC(=O)c2cc(C3CC3)on2)CC1 [compound 2, N-(1-(D-tryptophyl)piperidin-4-yl)-5-cyclopropylisoxazole-3-carboxamide] |
| 0.486 | N[C@@H](Cc1ccc(O)cc1)C(=O)N1CCC(NC(=O)c2cc(C3CC3)on2)CC1 [compound 3, N-(1-(L-tyrosyl)piperidin-4-yl)-5-cyclopropylisoxazole-3-carboxamide] |
| 0.947 | NCC(=O)N[C@@H](Cc1c[nH]c2ccccc12)C(=O)N1CCC(NC(=O)c2cc(C3CC3)on2)CC1 [compound 4, 5-cyclopropyl-N-(1-(glycyl-L-tryptophyl)piperidin-4-yl)isoxazole-3-carboxamide] |
| 2.97 | C[C@@H]1CC(NC(=O)c2cc(C3CC3)on2)CCN1C(=O)[C@@H](N)Cc1ccc(O)cc1 (stereo partly drawn) [compound 6, N-((2R)-1-(L-tyrosyl)-2-methylpiperidin-4-yl)-5-cyclopropylisoxazole-3-carboxamide] |
| 1.04 | C[C@H]1CC(NC(=O)c2cc(C3CC3)on2)CCN1C(=O)[C@@H](N)Cc1ccc(O)cc1 (stereo partly drawn) [compound 7, N-((2S)-1-(L-tyrosyl)-2-methylpiperidin-4-yl)-5-cyclopropylisoxazole-3-carboxamide] |
| 1.2 | CN[C@@H](Cc1cn(C)c2ccccc12)C(=O)N1CCC(NC(=O)c2cc(C3CC3)on2)CC1 [compound 8, 5-cyclopropyl-N-(1-(Na,1-dimethyl-L-tryptophyl)piperidin-4-yl)isoxazole-3-carboxamide] |
| 0.214 | N[C@@H](Cc1ccc(O)c(Br)c1)C(=O)N1CCC(NC(=O)c2cc(C3CC3)on2)CC1 [compound 9, (S)-N-(1-(2-amino-3-(3-bromo-4-hydroxyphenyl)propanoyl)piperidin-4-yl)-5-cyclopropylisoxazole-3-carboxamide] |
| 2.41 | NC[C@H](Cc1ccccc1)C(=O)N1CCC(NC(=O)c2cc(C3CC3)on2)CC1 [compound 11, (S)-N-(1-(3-amino-2-benzylpropanoyl)piperidin-4-yl)-5-cyclopropylisoxazole-3-carboxamide] |
| 1.29 | N[C@H]1CC[C@H](C(=O)N2CCC(NC(=O)c3cc(C4CC4)on3)CC2)CC1 [compound 13, N-(1-((1r,4R)-4-aminocyclohexane-1-carbonyl)piperidin-4-yl)-5-cyclopropylisoxazole-3-carboxamide] |
| 4.59 | N[C@@H](Cc1ccc(O)cc1)CN1CCC(NC(=O)c2cc(C3CC3)on2)CC1 [compound 14, (S)-N-(1-(2-amino-3-(4-hydroxyphenyl)propyl)piperidin-4-yl)-5-cyclopropylisoxazole-3-carboxamide] |
| 8.55 | O=C(NC1CCN(C(=O)C2CCNCC2)CC1)c1cc(C2CC2)on1 [compound 15, 5-cyclopropyl-N-(1-(piperidine-4-carbonyl)piperidin-4-yl)isoxazole-3-carboxamide] |
| 10 | CN1CCC(C(=O)N2CCC(NC(=O)c3cc(C4CC4)on3)CC2)CC1 [compound 16, 5-cyclopropyl-N-(1-(1-methylpiperidine-4-carbonyl)piperidin-4-yl)isoxazole-3-carboxamide] |
| 1.06 | O=C(NC1CCN(C(=O)CC2CCNCC2)CC1)c1cc(C2CC2)on1 [compound 17, 5-cyclopropyl-N-(1-(2-(piperidin-4-yl)acetyl)piperidin-4-yl)isoxazole-3-carboxamide] |
| 5.08 | CN1CCC(CC(=O)N2CCC(NC(=O)c3cc(C4CC4)on3)CC2)CC1 [compound 18, 5-cyclopropyl-N-(1-(2-(1-methylpiperidin-4-yl)acetyl)piperidin-4-yl)isoxazole-3-carboxamide] |
| 30.9 | O=C(NC1CCN(C(=O)[C@@H](CO)Cc2ccccc2)CC1)c1cc(C2CC2)on1 [compound 19, (R)-N-(1-(2-benzyl-3-hydroxypropanoyl)piperidin-4-yl)-5-cyclopropylisoxazole-3-carboxamide] |
| 5.77 | N[C@H]1C[C@H](C(=O)N2CCC(NC(=O)c3cc(C4CC4)on3)CC2)C1 [compound 20, N-(1-((1r,3r)-3-aminocyclobutane-1-carbonyl)piperidin-4-yl)-5-cyclopropylisoxazole-3-carboxamide] |
| 5.69 | N[C@H]1C[C@@H](C(=O)N2CCC(NC(=O)c3cc(C4CC4)on3)CC2)C1 [compound 21, N-(1-((1s,3s)-3-aminocyclobutane-1-carbonyl)piperidin-4-yl)-5-cyclopropylisoxazole-3-carboxamide] |
| 2 | C[C@H]1CN(C(=O)[C@H]2CC[C@H](N)CC2)CCC1NC(=O)c1cc(C2CC2)on1 (stereo partly drawn) [compound 24, N-((3S)-1-((1r,4S)-4-aminocyclohexane-1-carbonyl)-3-methylpiperidin-4-yl)-5-cyclopropylisoxazole-3-carboxamide] |
| 0.299 | C[C@@H]1CN(C(=O)[C@H]2CC[C@H](N)CC2)CCC1NC(=O)c1cc(C2CC2)on1 (stereo partly drawn) [compound 25, N-((3R)-1-((1r,4R)-4-aminocyclohexane-1-carbonyl)-3-methylpiperidin-4-yl)-5-cyclopropylisoxazole-3-carboxamide] |
| 5.24 | NC[C@@H](Cc1ccc(O)cc1)C(=O)N1CCC(NC(=O)c2cc(C3CC3)on2)CC1 [compound 26, (R)-N-(1-(3-amino-2-(4-hydroxybenzyl)propanoyl)piperidin-4-yl)-5-cyclopropylisoxazole-3-carboxamide] |
| 0.342 | NC[C@H](Cc1ccc(O)cc1)C(=O)N1CCC(NC(=O)c2cc(C3CC3)on2)CC1 [compound 27, (S)-N-(1-(3-amino-2-(4-hydroxybenzyl)propanoyl)piperidin-4-yl)-5-cyclopropylisoxazole-3-carboxamide] |
| 2.04 | NC[C@@H](Cc1ccc(O)c(I)c1)C(=O)N1CCC(NC(=O)c2cc(C3CC3)on2)CC1 [compound 28, (R)-N-(1-(3-amino-2-(4-hydroxy-3-iodobenzyl)propanoyl)piperidin-4-yl)-5-cyclopropylisoxazole-3-carboxamide] |
| 42.7 | O=C(NC1CCN(C[C@H](O)Cc2ccc(O)cc2)CC1)c1cc(C2CC2)on1 [compound 30, (R)-5-cyclopropyl-N-(1-(2-hydroxy-3-(4-hydroxyphenyl)propyl)piperidin-4-yl)isoxazole-3-carboxamide] |
| 5.1 | O=C(NC1CCN(C(=O)[C@@H](CO)Cc2ccc(O)c(I)c2)CC1)c1cc(C2CC2)on1 [compound 31, (R)-5-cyclopropyl-N-(1-(3-hydroxy-2-(4-hydroxy-3-iodobenzyl)propanoyl)piperidin-4-yl)isoxazole-3-carboxamide] |
| 4.11 | C[C@H](N)CC(=O)NC[C@@H](Cc1ccc(O)c(I)c1)C(=O)N1CCC(NC(=O)c2cc(C3CC3)on2)CC1 [compound 32, N-(1-((R)-3-((S)-3-aminobutanamido)-2-(4-hydroxy-3-iodobenzyl)propanoyl)piperidin-4-yl)-5-cyclopropylisoxazole-3-carboxamide] |
| 0.473 | C[C@H](N)CC(=O)NC[C@H](Cc1ccc(O)c(I)c1)C(=O)N1CCC(NC(=O)c2cc(C3CC3)on2)CC1 [compound 33, N-(1-((S)-3-((S)-3-aminobutanamido)-2-(4-hydroxy-3-iodobenzyl)propanoyl)piperidin-4-yl)-5-cyclopropylisoxazole-3-carboxamide] |
